Measurements from patent US7846959B2, “Raf modulators and methods of use” (Exelixis, Inc., priority 2004, dated 2010).
Where two headings read alike, the source gives them in different places.

How the values were obtained:
c-Raf = c-Raf (Homo sapiens, UniProt P04049); assay: Luciferase-coupled chemiluminescence kinase assay (ATP consumption), c-Raf; type: biochemical; settings: read-out: cRaf-1 IC50
Experimental: (§1) Tyrosine kinase activity is determined by 1) measurement of kinase-dependent ATP consumption by in the presence of a generic substrate such as […], tyrosine (pEY), by luciferase/luciferin-mediated chemiluminescence or; 2) incorporation of radioactive phosphate derived from ^33P-ATP into a generic substrate which has been adsorbed onto the well surface of polystyrene microtiter plates. Phosphorylated substrate products are quantified by scintillation spectrometry.
(§2) Luciferase-Coupled Chemiluminescence Assay Protocol
(§3) Kinase activity is measured as the percent of ATP consumed following the kinase reaction using luciferase-luciferin-coupled chemiluminescence. Reactions were conducted in 384-well white, medium binding microtiter plates (Greiner). Kinase reactions were initiated by combining test compounds, ATP and kinase in a 20 uL volume. The reaction mixture was incubated at ambient temperature for 3 hrs. For c-Raf, B-Raf, and B-RafV599E, […] of the enzyme was pre-incubated with compound in 20 mM Tris pH 7.5, 10 mM MgCl2, 0.03% TX-100, and 1 mM DTT for 30 minutes at room temperature. Following the kinase reaction, a 20 μL aliquot of luciferase-luciferin mix was added and the chemiluminescence signal measured using a Victor^2 plate reader (Perkin Elmer). The luciferase-luciferin mix contained 50 mM HEPES, pH 7.8, 67 mM oxalic acid (pH 7.8), 5 (or 50) mM DTT, 0.4% Triton X-100, 0.25 mg/mL coenzyme A, 63 μM AMP, 28 μg/mL luciferin and 40,000 units/mL luciferase. Total ATP consumption was limited to 25-60% and the IC50 values correlate well with those determined by radiometric assays.

B-Raf = B-Raf (Homo sapiens, UniProt P15056); assay: Luciferase-coupled chemiluminescence kinase assay (ATP consumption), B-Raf; type: biochemical
Experimental: as §1, §2, §3

[1] = read-out: bRaf (inhibition indicated as IC50)

Chain of c-Raf (P04049 whole entry): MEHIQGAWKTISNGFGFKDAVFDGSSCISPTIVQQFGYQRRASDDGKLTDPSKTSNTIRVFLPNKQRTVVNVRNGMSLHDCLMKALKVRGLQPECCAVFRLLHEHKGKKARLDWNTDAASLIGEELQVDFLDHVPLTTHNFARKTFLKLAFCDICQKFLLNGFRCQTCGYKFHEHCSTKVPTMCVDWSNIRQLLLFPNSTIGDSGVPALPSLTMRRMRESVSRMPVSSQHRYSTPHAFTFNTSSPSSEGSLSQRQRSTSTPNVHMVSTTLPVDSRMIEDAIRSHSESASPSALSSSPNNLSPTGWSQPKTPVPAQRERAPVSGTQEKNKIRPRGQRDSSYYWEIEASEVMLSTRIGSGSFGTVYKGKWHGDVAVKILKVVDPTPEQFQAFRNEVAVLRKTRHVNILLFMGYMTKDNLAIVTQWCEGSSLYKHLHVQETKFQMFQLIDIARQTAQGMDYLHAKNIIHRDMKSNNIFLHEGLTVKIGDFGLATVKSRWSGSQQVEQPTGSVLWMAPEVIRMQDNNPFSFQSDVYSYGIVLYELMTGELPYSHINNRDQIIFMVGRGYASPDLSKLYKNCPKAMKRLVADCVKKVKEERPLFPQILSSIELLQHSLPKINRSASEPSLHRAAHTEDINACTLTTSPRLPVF
Chain of B-Raf (P15056 whole entry): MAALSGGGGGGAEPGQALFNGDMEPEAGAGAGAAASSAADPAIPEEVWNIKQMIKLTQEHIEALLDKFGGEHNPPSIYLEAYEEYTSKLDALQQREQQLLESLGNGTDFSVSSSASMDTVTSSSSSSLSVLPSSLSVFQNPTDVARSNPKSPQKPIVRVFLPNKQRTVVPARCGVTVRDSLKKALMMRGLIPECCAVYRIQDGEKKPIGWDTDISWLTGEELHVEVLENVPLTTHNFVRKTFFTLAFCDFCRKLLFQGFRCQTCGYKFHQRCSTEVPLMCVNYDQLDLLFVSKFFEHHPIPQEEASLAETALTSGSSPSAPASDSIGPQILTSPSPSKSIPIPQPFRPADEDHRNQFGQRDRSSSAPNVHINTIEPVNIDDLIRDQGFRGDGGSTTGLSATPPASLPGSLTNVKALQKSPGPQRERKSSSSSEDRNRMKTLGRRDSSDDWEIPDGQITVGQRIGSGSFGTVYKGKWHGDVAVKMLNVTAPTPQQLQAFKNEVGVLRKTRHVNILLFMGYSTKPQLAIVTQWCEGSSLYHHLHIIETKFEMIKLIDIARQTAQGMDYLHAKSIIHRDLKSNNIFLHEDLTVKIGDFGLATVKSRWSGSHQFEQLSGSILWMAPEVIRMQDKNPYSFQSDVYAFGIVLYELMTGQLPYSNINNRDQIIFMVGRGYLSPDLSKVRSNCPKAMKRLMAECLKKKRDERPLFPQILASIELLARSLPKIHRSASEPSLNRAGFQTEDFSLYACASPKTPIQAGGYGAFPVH

O=C1COc2ccc(C3(O)c4ccccc4C(=O)N3Cc3ccccc3Cl)cc2N1 (centres unmarked) [Entry 35, 6-{2-[(2-chlorophenyl)methyl]-1-hydroxy-3-oxo-2,3-dihydro-1H-isoindol-1-yl}-2H-1,4-benzoxazin-3(4H)-one]
IC50 (c-Raf): 1 to 10 µM | IC50 (B-Raf; read-out: bRaf IC50): ≥ 10 µM

O=C1COc2ccc(C3(O)c4ccccc4C(=O)N3Cc3cccc(F)c3)cc2N1 (centres unmarked) [Entry 36, 6-{2-[(3-fluorophenyl)methyl]-1-hydroxy-3-oxo-2,3-dihydro-1H-isoindol-1-yl}-2H-1,4-benzoxazin-3(4H)-one]
IC50 (c-Raf): 1 to 10 µM | IC50 (B-Raf; read-out: bRaf IC50): 1 to 10 µM

O=C1COc2ccc(C3(O)c4ccccc4C(=O)N3Cc3ccccc3Br)cc2N1 (centres unmarked) [Entry 37, 6-{2-[(2-bromophenyl)methyl]-1-hydroxy-3-oxo-2,3-dihydro-1H-isoindol-1-yl}-2H-1,4-benzoxazin-3(4H)-one]
IC50 (c-Raf): ≥ 10 µM | IC50 (B-Raf; read-out: bRaf IC50): ≥ 10 µM

O=C1COc2ccc(C3(O)c4ccccc4C(=O)N3Cc3ccccc3F)cc2N1 (centres unmarked) [Entry 38, 6-{2-[(2-fluorophenyl)methyl]-1-hydroxy-3-oxo-2,3-dihydro-1H-isoindol-1-yl}-2H-1,4-benzoxazin-3(4H)-one]
IC50 (c-Raf): 1 to 10 µM | IC50 (B-Raf; read-out: bRaf IC50): ≥ 10 µM

O=C1COc2ccc(C3(O)c4ccccc4C(=O)N3c3cccc(F)c3)cc2N1 (centres unmarked) [Entry 39, 6-[2-(3-fluorophenyl)-1-hydroxy-3-oxo-2,3-dihydro-1H-isoindol-1-yl]-2H-1,4-benzoxazin-3(4H)-one]
IC50 (c-Raf): 0.1 to 1 µM | IC50 (B-Raf; read-out: bRaf IC50): 1 to 10 µM

O=C1COc2ccc(C3(O)c4ccccc4C(=O)N3c3cccc(I)c3)cc2N1 (centres unmarked) [Entry 40, 6-[1-hydroxy-2-(3-iodophenyl)-3-oxo-2,3-dihydro-1H-isoindol-1-yl]-2H-1,4-benzoxazin-3(4H)-one]
IC50 (c-Raf): < 0.1 µM | IC50 (B-Raf; read-out: bRaf IC50): 0.1 to 1 µM

O=C1COc2ccc(C3(O)c4ccccc4C(=O)N3c3cccc(Br)c3)cc2N1 (centres unmarked) [Entry 41, 6-[2-(3-bromophenyl)-1-hydroxy-3-oxo-2,3-dihydro-1H-isoindol-1-yl]-2H-1,4-benzoxazin-3(4H)-one]
IC50 (c-Raf): < 0.1 µM | IC50 (B-Raf; read-out: bRaf IC50): 0.1 to 1 µM

O=C1COc2ccc(C3(O)c4ccccc4C(=O)N3c3cccc([N+](=O)[O-])c3)cc2N1 (centres unmarked) [Entry 42, 6-[1-hydroxy-2-(3-nitrophenyl)-3-oxo-2,3-dihydro-1H-isoindol-1-yl]-2H-1,4-benzoxazin-3(4H)-one]
IC50 (c-Raf): 0.1 to 1 µM | IC50 (B-Raf; read-out: bRaf IC50): 1 to 10 µM

COc1cccc(N2C(=O)c3ccccc3C2(O)c2ccc3c(c2)NC(=O)CO3)c1 (centres unmarked) [Entry 43, 6-{1-hydroxy-2-[3-(methyloxy)phenyl]-3-oxo-2,3-dihydro-1H-isoindol-1-yl}-2H-1,4-benzoxazin-3(4H)-one]
IC50 (c-Raf): 0.1 to 1 µM | IC50 (B-Raf; read-out: bRaf IC50): 0.1 to 1 µM

Cc1cccc(N2C(=O)c3ccccc3C2(O)c2ccc3c(c2)NC(=O)CO3)c1 (centres unmarked) [Entry 44, 6-[1-hydroxy-2-(3-methylphenyl)-3-oxo-2,3-dihydro-1H-isoindol-1-yl]-2H-1,4-benzoxazin-3(4H)-one]
IC50 (c-Raf): 0.1 to 1 µM | IC50 (B-Raf; read-out: bRaf IC50): 0.1 to 1 µM

Nc1ccccc1N1C(=O)c2ccccc2C1(O)c1ccc2c(c1)NC(=O)CO2 (centres unmarked) [Entry 47, 6-[2-(2-aminophenyl)-1-hydroxy-3-oxo-2,3-dihydro-1H-isoindol-1-yl]-2H-1,4-benzoxazin-3(4H)-one]
IC50 (c-Raf): 0.1 to 1 µM | IC50 (B-Raf; read-out: bRaf IC50): 0.1 to 1 µM

O=C1COc2ccc(C(=O)c3ccccc3-c3nc(-c4ccccc4)no3)cc2N1 [Entry 48, 6-{[2-(3-phenyl-1,2,4-oxadiazol-5-yl)phenyl]carbonyl}-2H-1,4-benzoxazin-3(4H)-one]
IC50 (c-Raf): ≥ 10 µM | IC50 (B-Raf; read-out: bRaf IC50): ≥ 10 µM

O=C1COc2ccc(C(=O)c3ccccc3-c3nc4ccccc4[nH]3)cc2N1 [Entry 49, 6-{[2-(1H-benzimidazol-2-yl)phenyl]carbonyl}-2H-1,4-benzoxazin-3(4H)-one]
IC50 (c-Raf): ≥ 10 µM | IC50 (B-Raf; read-out: bRaf IC50): ≥ 10 µM

O=C1COc2ccc(C3(O)c4ccccc4C(=O)N3Cc3ccccc3C(F)(F)F)cc2N1 (centres unmarked) [Entry 50, 6-(1-hydroxy-3-oxo-2-{[2-(trifluoromethyl)phenyl]methyl}-2,3-dihydro-1H-isoindol-1-yl)-2H-1,4-benzoxazin-3(4H)-one]
IC50 (c-Raf): ≥ 10 µM | IC50 (B-Raf; read-out: bRaf IC50): ≥ 10 µM

O=C1COc2ccc(C3(O)c4ccccc4C(=O)N3Cc3cc(Br)ccc3F)cc2N1 (centres unmarked) [Entry 51, 6-{2-[(5-bromo-2-fluorophenyl)methyl]-1-hydroxy-3-oxo-2,3-dihydro-1H-isoindol-1-yl}-2H-1,4-benzoxazin-3(4H)-one]
IC50 (c-Raf): 1 to 10 µM | IC50 (B-Raf; read-out: bRaf IC50): 1 to 10 µM

O=C1COc2ccc(C3(O)c4ccccc4C(=O)N3Cc3cccc([N+](=O)[O-])c3)cc2N1 (centres unmarked) [Entry 52, 6-{1-hydroxy-2-[(3-nitrophenyl)methyl]-3-oxo-2,3-dihydro-1H-isoindol-1-yl}-2H-1,4-benzoxazin-3(4H)-one]
IC50 (c-Raf): 1 to 10 µM | IC50 (B-Raf; read-out: bRaf IC50): 1 to 10 µM

O=C1COc2ccc(C3(O)c4ccccc4C(=O)N3Cc3cccc(C(F)(F)F)c3)cc2N1 (centres unmarked) [Entry 53, 6-(1-hydroxy-3-oxo-2-{[3-(trifluoromethyl)phenyl]methyl}-2,3-dihydro-1H-isoindol-1-yl)-2H-1,4-benzoxazin-3(4H)-one]
IC50 (c-Raf): ≥ 10 µM | IC50 (B-Raf; read-out: bRaf IC50): ≥ 10 µM

COc1cccc(CN2C(=O)c3ccccc3C2(O)c2ccc3c(c2)NC(=O)CO3)c1OC (centres unmarked) [Entry 54]
IC50 (c-Raf): ≥ 10 µM | IC50 (B-Raf; read-out: bRaf IC50): ≥ 10 µM

O=C1COc2ccc(C3(O)c4ccccc4C(=O)N3Cc3cccc(I)c3)cc2N1 (centres unmarked) [Entry 55, 6-{1-hydroxy-2-[(3-iodophenyl)methyl]-3-oxo-2,3-dihydro-1H-isoindol-1-yl}-2H-1,4-benzoxazin-3(4H)-one]
IC50 (c-Raf): 1 to 10 µM | IC50 (B-Raf; read-out: bRaf IC50): 1 to 10 µM

COC(=O)Nc1nc2ccc(C(=O)c3ccccc3C(=O)Nc3cccc(C)c3)cc2[nH]1 [Entry 393, methyl {6-[(2-{[(3-methylphenyl)amino]carbonyl}phenyl)carbonyl]-1H-benzimidazol-2-yl}carbamate]
IC50 (B-Raf; [1]): < 0.1 µM

COC(=O)Nc1nc2ccc(C(=O)c3ccccc3C(=O)Nc3cccc(F)c3)cc2[nH]1 [Entry 396, methyl {6-[(2-{[(3-fluorophenyl)amino]carbonyl}phenyl)carbonyl]-1H-benzimidazol-2-yl}carbamate]
IC50 (B-Raf; [1]): < 0.1 µM

CCc1cccc(NC(=O)c2ccccc2C(=O)c2ccc3nc(NC(=O)OC)[nH]c3c2)c1 [Entry 399, methyl {6-[(2-{[(3-ethylphenyl)amino]carbonyl}phenyl)carbonyl]-1H-benzimidazol-2-yl}carbamate]
IC50 (B-Raf; [1]): < 0.1 µM

C#Cc1cccc(NC(=O)c2ccccc2C(=O)c2ccc3nc(NC(=O)OC)[nH]c3c2)c1 [Entry 400, methyl {6-[(2-{[(3-ethynylphenyl)amino]carbonyl}phenyl)carbonyl]-1H-benzimidazol-2-yl}carbamate]
IC50 (B-Raf; [1]): < 0.1 µM

COC(=O)Nc1nc2ccc(C(=O)c3ccccc3C(=O)Nc3cccc(I)c3)cc2[nH]1 [Entry 403, methyl {6-[(2-{[(3-iodophenyl)amino]carbonyl}phenyl)carbonyl]-1H-benzimidazol-2-yl}carbamate]
IC50 (B-Raf; [1]): < 0.1 µM

COC(=O)Nc1nc2ccc(C(=O)c3ccccc3C(=O)Nc3cccc(C(C)C)c3)cc2[nH]1 [Entry 404, methyl (6-{[2-({[3-(1-methylethyl)phenyl]amino}carbonyl)phenyl]carbonyl}-1H-benzimidazol-2-yl)carbamate]
IC50 (B-Raf; [1]): < 0.1 µM

COC(=O)Nc1nc2ccc(C(=O)c3ccccc3C(=O)NCc3ccsc3)cc2[nH]1 [Entry 405, methyl {6-[(2-{[(3-thienylmethyl)amino]carbonyl}phenyl)carbonyl]-1H-benzimidazol-2-yl}carbamate]
IC50 (B-Raf; [1]): < 0.1 µM

COC(=O)Nc1nc2ccc(C(=O)c3ccccc3C(=O)Nc3cc(Br)ccc3F)cc2[nH]1 [Entry 409, methyl {6-[(2-{[(5-bromo-2-fluorophenyl)amino]carbonyl}phenyl)carbonyl]-1H-benzimidazol-2-yl}carbamate]
IC50 (B-Raf; [1]): < 0.1 µM

COC(=O)Nc1nc2ccc(C(=O)c3ccccc3C(=O)Nc3cccc(Br)c3F)cc2[nH]1 [Entry 412, methyl {6-[(2-{[(3-bromo-2-fluorophenyl)amino]carbonyl}phenyl)carbonyl]-1H-benzimidazol-2-yl}carbamate]
IC50 (B-Raf; [1]): < 0.1 µM

COC(=O)Nc1nc2ccc(C(=O)c3ccccc3C(=O)Nc3cc(Cl)ccc3C)cc2[nH]1 [Entry 415, methyl {6-[(2-{[(5-chloro-2-methylphenyl)amino]carbonyl}phenyl)carbonyl]-1H-benzimidazol-2-yl}carbamate]
IC50 (B-Raf; [1]): < 0.1 µM

COC(=O)Nc1nc2ccc(C(=O)c3ccccc3C(=O)Nc3cc(Br)ccc3C)cc2[nH]1 [Entry 416, methyl {6-[(2-{[(5-bromo-2-methylphenyl)amino]carbonyl}phenyl)carbonyl]-1H-benzimidazol-2-yl}carbamate]
IC50 (B-Raf; [1]): < 0.1 µM

COC(=O)Nc1nc2ccc(C(=O)c3ccccc3C(=O)Nc3cccc(I)c3F)cc2[nH]1 [Entry 417, methyl {6-[(2-{[(2-fluoro-3-iodophenyl)amino]carbonyl}phenyl)carbonyl]-1H-benzimidazol-2-yl}carbamate]
IC50 (B-Raf; [1]): < 0.1 µM
